# Read-outs that look alike come from different tables or passages of the source.
# Assays:
# [1] = tested on: TF1 JAK2 V617F STAT3 reporter; assay: Cellular TF1 STAT3 assay (luciferase reporter), JAK2 V617F; assay type: cell-based; details: read-out: Cell PD-TF1 JAK2 V617F STAT3 (IC50)
# In short: (§1)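 TF1 V617F JAK2 reporter cells, 10k/well; 10-pt 1:3 dose response from 10 mM 1000× DMSO stock; 18-20 h, 37 °C, 5% CO2; ONE-glo, 10 min RT; luminescence. Triplicate plates, DMSO vehicle.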
# [2] = tested on: TF1 JAK2 V617F STAT5 reporter; assay: Cellular TF1 STAT5 assay (luciferase reporter), JAK2 V617F; assay type: cell-based; details: read-out: Cell PD TF1 V617F STAT5 (IC50)
# In short: as §1
# [3] = biological target: T1, JAK2 JH2 WT (V536-D812) [W659A, W777A, F794H solubilizing mutations] (Homo sapiens, UniProt O60674, F794H/W659A/W777A); assay: Surface Plasmon Resonance (SPR) binding assay, JAK2 JH2 domain
# T1 construct: **JAK2 JH2 WT (V536-D812) [W659A, W777A, F794H solubilizing mutations]; C-thrombin-avi-His6; thrombin cleavage site (C); His6 (C); purchased Biortus
# In short: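 Kinetics came from 1:1 fits of single-cycle runs at 20 °C: four 3-fold dilutions from 5 uM for JH1 or 500 nM for JH2, 60 s association, and 300 s or 1200 s dissociation respectively. Protein was freshly captured per compound in the presence of 10 uM stabilizer compound, with running buffer of pH 7.5 HEPES/NaCl/glycerol/DTT plus 2% DMSO.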
# [4] = Homo sapiens, TF-1, TF1 cells, JAK2 V617F
# T1 sequence (O60674 536-812 W659A/W777A/F794H): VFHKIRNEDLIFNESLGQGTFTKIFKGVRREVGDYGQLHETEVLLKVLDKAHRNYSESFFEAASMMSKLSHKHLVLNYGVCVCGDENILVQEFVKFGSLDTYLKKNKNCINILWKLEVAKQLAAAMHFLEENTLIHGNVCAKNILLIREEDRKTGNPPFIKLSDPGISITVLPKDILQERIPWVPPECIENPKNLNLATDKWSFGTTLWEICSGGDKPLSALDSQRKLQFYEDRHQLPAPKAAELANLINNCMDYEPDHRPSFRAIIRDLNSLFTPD
"IC50 [1, 4]","IC50 [2, 4]",Kd [3],IC50 ([1]; TF1 JAK2 V617F),IC50 ([2]; TF1 JAK2 V617F),"Kd ([3]; SPR, JAK2 JH2 domain)",SMILES
5000 to 100000 nM,500 to 5000 nM,10 to 50 nM,,,,CNC(=O)c1nnc(NC(=O)C2CC2)cc1Nc1cccc(-c2ccc(C(=O)N(C)Cc3nc(CN(C)C)cs3)nc2)c1OC [Compound 253]
,,,50 to 500 nM,50 to 500 nM,0.01 to 10 nM,[2H]C([2H])([2H])NC(=O)c1nnc(NC(=O)C2CC2)cc1Nc1cccc(-c2cnn(C3CN(Cc4ccccn4)C3)c2)c1OC [Compound 105]
500 to 5000 nM,500 to 5000 nM,0.01 to 10 nM,,,,CNC(=O)c1nnc(NC(=O)C2CC2)cc1Nc1cccc(-c2ccc(C(=O)N(C)Cc3cnn(C(F)F)c3C)nc2)c1OC [Compound 298]
50 to 500 nM,50 to 500 nM,0.01 to 10 nM,,,,CNC(=O)c1nnc(NC(=O)C2CC2)cc1Nc1cccc(-c2ccc(C(=O)N(C)Cc3ncc(COC)s3)nc2)c1OC [Compound 244]
50 to 500 nM,50 to 500 nM,0.01 to 10 nM,,,,CNC(=O)c1nnc(NC(=O)C2CC2)cc1Nc1cccc(-c2cnn(C3CN(Cc4cccc5nccn45)C3)c2)c1OC [Compound 374]
,,,500 to 5000 nM,500 to 5000 nM,0.01 to 10 nM,CNC(=O)c1nnc(NC(=O)C2CC2)cc1Nc1cccc(-c2ccc(C(=O)N(C)Cc3cnn(C)c3C)nc2)c1OC [Compound 166]
,,,50 to 500 nM,50 to 500 nM,0.01 to 10 nM,[2H]C([2H])([2H])NC(=O)c1nnc(NC(=O)C2CC2)cc1Nc1cccc(-c2ccc(C(=O)N(Cc3cc(C#N)ccn3)C([2H])([2H])[2H])nc2)c1OC [Compound 74]
50 to 500 nM,50 to 500 nM,0.01 to 10 nM,,,,CNC(=O)c1nnc(NC(=O)C2CC2)cc1Nc1cccc(-c2cnn(C3CN(Cc4cccc(C5(O)COC5)n4)C3)c2)c1OC [Compound 382]
500 to 5000 nM,500 to 5000 nM,0.01 to 10 nM,,,,CNC(=O)c1nnc(NC(=O)C2CC2)cc1Nc1cccc(-c2ccc(C(=O)N(C)Cc3cn(C4CC4)nc3C)nc2)c1OC [Compound 285]
,,,500 to 5000 nM,500 to 5000 nM,0.01 to 10 nM,CNC(=O)c1nnc(NC(=O)C2CC2)cc1Nc1cccc(-c2cnn(C3CN(Cc4ncccc4F)C3)c2)c1OC [Compound 69]
,,,500 to 5000 nM,500 to 5000 nM,0.01 to 10 nM,[2H]C([2H])([2H])NC(=O)c1nnc(NC(=O)C2CC2)cc1Nc1cccc(-c2cnc(C(=O)N(Cc3ccn(C)n3)C([2H])([2H])[2H])nc2)c1OC [Compound 63]
,,,50 to 500 nM,50 to 500 nM,0.01 to 10 nM,CNC(=O)c1nnc(NC(=O)C2CC2)cc1Nc1cccc(-c2cnc(C(=O)N(C)Cc3cccn(C)c3=O)c(F)c2)c1OC [Compound 29]
50 to 500 nM,50 to 500 nM,0.01 to 10 nM,,,,CNC(=O)c1nnc(NC(=O)C2CC2)cc1Nc1cccc(-c2ccc(C(=O)N(C)Cc3cn(C(F)F)nc3C)nc2)c1OC [Compound 297]
5000 to 100000 nM,5000 to 100000 nM,10 to 50 nM,,,,CNC(=O)c1nnc(NC(=O)C2CC2)cc1Nc1ccc(C)c(-c2ccc(C3CN(Cc4cc(C#N)ccn4)C3)nc2)c1OC [Compound 321]
50 to 500 nM,50 to 500 nM,0.01 to 10 nM,,,,CNC(=O)c1nnc(NC(=O)C2CC2)cc1Nc1cccc(-c2cnn(C3CN(Cc4cccc(C(C)=O)n4)C3)c2)c1OC [Compound 307]
50 to 500 nM,50 to 500 nM,0.01 to 10 nM,,,,CNC(=O)c1nnc(NC(=O)C2CC2)cc1Nc1cccc(-c2cnn(C3CN(Cc4cccnc4C#N)C3)c2)c1OC [Compound 212]
500 to 5000 nM,500 to 5000 nM,0.01 to 10 nM,,,,CNC(=O)c1nnc(NC(=O)C2CC2)cc1Nc1cccc(-c2cnn(C3CN(Cc4ncccc4O)C3)c2)c1OC [Compound 365]
,,,50 to 500 nM,500 to 5000 nM,0.01 to 10 nM,CNC(=O)c1nnc(NC(=O)C2CC2)cc1Nc1cccc(-c2cnn(C3CN(Cc4nccc(C)n4)C3)c2)c1OC [Compound 77]
500 to 5000 nM,500 to 5000 nM,0.01 to 10 nM,,,,CNC(=O)c1nnc(NC(=O)C2CC2)cc1Nc1cccc(-c2cnn(C3CN(C(=O)c4ccccn4)C3)c2)c1OC [Compound 229]
50 to 500 nM,50 to 500 nM,0.01 to 10 nM,,,,CNC(=O)c1nnc(NC(=O)C2CC2)cc1Nc1cccc(-c2cnn(C3CN(Cc4cccc(C=O)n4)C3)c2)c1OC [Compound 324]
,,,500 to 5000 nM,500 to 5000 nM,0.01 to 10 nM,CNC(=O)c1nnc(NC(=O)C2CC2)cc1Nc1cccc(-c2ccc(C(=O)N(C)Cc3ccn(C)n3)nn2)c1OC [Compound 76]

"IC50 [1, 4]","IC50 [2, 4]",Kd [3],IC50 ([1]; TF1 JAK2 V617F),IC50 ([2]; TF1 JAK2 V617F),"Kd ([3]; SPR, JAK2 JH2 domain)",SMILES
50 to 500 nM,50 to 500 nM,0.01 to 10 nM,,,,CNC(=O)c1nnc(NC(=O)C2CC2)cc1Nc1ccc(C)c(-c2ccc(C(=O)N(C)Cc3cc(S(C)(=O)=O)ccn3)nc2)c1OC [Compound 347]
500 to 5000 nM,500 to 5000 nM,,,,0.01 to 10 nM,"CNC(=O)c1nnc(NC(=O)C2CC2)cc1Nc1cccc(-c2cnn([C@H]3C[C@H]([C@@H](O)c4ccccn4)C3)c2)c1OC (single isomer, unassigned) [Compound 396]"
,,,500 to 5000 nM,500 to 5000 nM,0.01 to 10 nM,CNC(=O)c1nnc(NC(=O)C2CC2)cc1Nc1cccc(-c2cnn(C3CN(Cc4ncn(C)n4)C3)c2)c1OC [Compound 104]
,,,500 to 5000 nM,500 to 5000 nM,0.01 to 10 nM,CNC(=O)c1nnc(NC(=O)C2CC2)cc1Nc1cccc(-c2cnc(C(=O)N(C)Cc3ccn(C)n3)nc2)c1OC [Compound 49]
500 to 5000 nM,500 to 5000 nM,0.01 to 10 nM,,,,CNC(=O)c1nnc(NC(=O)C2CC2)cc1Nc1cccc(-c2ccn(C3CN(Cc4cccc(C(F)F)n4)C3)n2)c1OC [Compound 331]
5000 to 100000 nM,5000 to 100000 nM,10 to 50 nM,,,,"CNC(=O)c1nnc(NC(=O)C2CC2)cc1Nc1cccc(-c2ccc(C(=O)N(C)C[C@@H]3CCCC3(F)F)nc2)c1OC (single isomer, unassigned) [Compound 225]"
5000 to 100000 nM,5000 to 100000 nM,50 to 500 nM,,,,CNC(=O)c1nnc(NC(=O)C2CC2)cc1Nc1cccc(-c2cn(C3CN(C(C)C)C3)nc2CO)c1OC [Compound 335]
,,,500 to 5000 nM,500 to 5000 nM,0.01 to 10 nM,CNC(=O)c1nnc(NC(=O)C2CC2)cc1Nc1cccc(-c2cnn(C3CN(Cc4ccccc4)C3)c2)c1OC [Compound 130]
50 to 500 nM,50 to 500 nM,0.01 to 10 nM,,,,CNC(=O)c1nnc(NC(=O)C2CC2)cc1Nc1cccc(-c2cnn(C3CN(Cc4cccc5ccnn45)C3)c2)c1OC [Compound 287]
,,,50 to 500 nM,50 to 500 nM,0.01 to 10 nM,CNC(=O)c1nnc(NC(=O)C2CC2)cc1Nc1cccc(-c2cnn(C3CN(Cc4cccc(OC)n4)C3)c2)c1OC [Compound 107]
,,,500 to 5000 nM,500 to 5000 nM,10 to 50 nM,CNC(=O)c1nnc(NC(=O)C2CC2)cc1Nc1cccc(-c2ccc(C(=O)N(C)Cc3ccccc3C(C)C)nc2)c1OC [Compound 81]
500 to 5000 nM,500 to 5000 nM,0.01 to 10 nM,,,,COc1c(Nc2cc(NC(=O)C3CC3)nnc2-c2ncc[nH]2)ccc(C)c1-c1ccc(C(=O)N(C)Cc2cn(C)nc2C)nc1 [Compound 376]
,,,500 to 5000 nM,500 to 5000 nM,0.01 to 10 nM,CNC(=O)c1cnc(NC(=O)C2CC2)cc1Nc1cccc(-c2cnn(C3CN(Cc4ccccn4)C3)c2)c1OC [Compound 190]
50 to 500 nM,50 to 500 nM,0.01 to 10 nM,,,,CNC(=O)c1nnc(NC(=O)C2CC2)cc1Nc1cccc(-c2ccc(C(=O)N(C)Cc3cn(C)nc3C(F)F)nc2)c1OC [Compound 222]
50 to 500 nM,50 to 500 nM,0.01 to 10 nM,,,,CNC(=O)c1nnc(NC(=O)C2CC2)cc1Nc1cccc(-c2cnn(C3CN(Cc4cccc(C5(C#N)CC5)n4)C3)c2)c1OC [Compound 292]
500 to 5000 nM,500 to 5000 nM,0.01 to 10 nM,,,,CNC(=O)c1nnc(NC(=O)C2CC2)cc1Nc1cccc(-c2ccc(C3CN(Cc4cc(S(C)(=O)=O)ccn4)C3)nc2)c1OC [Compound 330]
,,,50 to 500 nM,50 to 500 nM,0.01 to 10 nM,"CNC(=O)c1nnc(NC(=O)C2CC2)cc1Nc1cccc(-c2ccc(C(=O)N(C)CC3=NO[C@@H]4CCCC[C@H]34)nc2)c1OC (single isomer, unassigned) [Compound 193]"
,,,500 to 5000 nM,500 to 5000 nM,10 to 50 nM,CNC(=O)c1nnc(NC(=O)C2CC2)cc1Nc1cccc(-c2cnn(C3CN(Cc4cccc(F)c4F)C3)c2)c1OC [Compound 129]
50 to 500 nM,50 to 500 nM,0.01 to 10 nM,,,,CNC(=O)c1nnc(NC(=O)C2CC2)cc1Nc1cccc(-c2cnn(C3CN(Cc4cccc(C5CCC5)n4)C3)c2)c1OC [Compound 258]
50 to 500 nM,50 to 500 nM,0.01 to 10 nM,,,,CNC(=O)c1nnc(NC(=O)C2CC2)cc1Nc1ccc(C)c(-c2cnc(C(=O)N(C)Cc3cc(S(C)(=O)=O)ccn3)c(F)c2)c1OC [Compound 340]
,,,500 to 5000 nM,500 to 5000 nM,0.01 to 10 nM,CNC(=O)c1nnc(NC(=O)C2CC2)cc1Nc1cccc(-c2cn(C3CN(Cc4ccccn4)C3)nc2C(F)F)c1OC [Compound 165]

# From patent US20240368122A1, “JAK2 INHIBITORS AND METHODS OF USE THEREOF” (RELAY THERAPEUTICS, INC., priority 2021, published 2024)
